Laboratory results as given in US20190350955A1, “METHODS AND PHARMACEUTICAL COMPOSITIONS FOR THE TREATMENT OF CARDIOMYOPATHIES” (INSERM (Institut National de la Sante et de la Recherche …, priority 2016, published 2019).

Key:
Format in all cases: in vivo, mouse
[1] = tested on: Lmna^WT/WT mice; test: Echocardiography in NR-diet wild type mice; conditions: whatever the diet and the course of the treatment
Experimental: (§1) Mice were bred in an accredited animal facility (accreditation number: C-75-13-08). All experiments on mice were approved by the Comité d'éthique en expérimentation animate Charles Darwin No 5. Mice Lmna^H222P/H222P were backcrossed 8 times to 129S2/SvPasOrlRj strain mice to obtain pure genetic background. Male mice used for the studies were maintained under a 12 h light/12 h dark cycle at constant temperature (23° C.) with free access to food and water. Nicotinamide riboside (NR) complementation: Animals at 17 weeks of age were fed for 9 weeks with either a chow diet (A04: Scientific Animal Food & Engineering) or a chow diet complemented with 0.25% of NR (kindly provided by ChromaDex, Inc. California) corresponding to a dose of 400 mg/kg/day for a mouse weighing 25 g eating 4 g of food per day. […]
Mouse transthoracic echocardiography was performed using an ACUSON 128XP/10 ultrasound with a 11 Mhz linear probe (Mountain View).MHz transducer applied to the chest wall. […] The intra ventricular septum (IVS), LV posterior wall (LVPW), LV diameter (LVD) in diastole and systole, the percentage of fractional shortening (FS) and the heart rate (HR) were measured from the mean of at least three separate cardiac cycles. […]

[2] = tested on: Lmna^H222P/H222P mice; test: Immunoblotting of PARylation, PARP-1, AIF, cleaved-caspase 3 in heart; conditions: NR treated Lmna H222P/H222P mice
Experimental: as §1
Total proteins were extracted in a glass teflon potter from around 5 mg of mouse heart in […] of Cell Lysis Buffer (Cell Signaling) completed with Deacetylation Inhibitors Cocktail (Santa Cruz). Total protein concentration was assessed with BCA™ Protein Assay (Pierce). […] The signal was captured with a CCD camera (G:Box Syngene) and quantified with ImageJ imaging Software (imagej.net).

[3] = tested on: TAC mice; test: Echocardiography after transverse aorta constriction (TAC); conditions: NR enriched diet 400 mg/kg/day vs untreated TAC group
Experimental: Transverse aorta constriction was performed in 2 month-old male mice under anesthesia (ketamine 100 mg/kg, xylazin 16 mg/kg). Skin was opened above the sternum and the upper part of the sternum was cut on a length of 2 mm allowing the mouse to breath without the need of a ventilator. A surgical suture was passed under the aortic cross between the right brachiocephalic (innominate) artery and left common carotid artery and a 27-½ gauge blunt needle was placed parallel to the wall of the aortic cross as a calibrator. Two loose knots were tied around the aortic cross and the needle. […]
Echocardiography was performed on lightly anesthetized mice given isoflurane (induction with 2% isoflurane 100% O2. and maintained with 0.5% isoflurance 100% O2). Non-invasive measurements of left ventricular dimensions were evaluated using Doppler echocardiography (Vivid 7 Dimension/Vivid7 PRO; GE Medical Systems) with a probe ultrasound frequency range of 9-14 MHz. […] LV fractional shortening (FS) was calculated using the formula: (LVEDD−LVESD)/LVEDD×100. LV myocardial volume (LVV), LV end-diastolic volume (EDV), and end-systolic volume (ESV) were calculated using a half-ellipsoid model of the LV. From these volumes, LV ejection fraction (EF) was calculated using, the formula: (EDV−ESV)/EDV×100. H/R ratio was calculated by the formula (PWThd+IVSThd)/LVEDd.

Q: For `NC(=O)c1ccc[n+]([C@@H]2O[C@H](CO)[C@@H](O)[C@H]2O)c1` [NR, nicotinamide riboside], which “cardiac structure and function by echocardiography” value [1] is on record?
A: No difference

Q: And the “PARP-1, AIF and cleaved-caspase 3 in heart” value [2]?
A: activation

Q: What about the PARylation in heart [2] of the same compound?
A: increase

Q: What about the “drop in LVEF triggered by TAC” value [3] of the same compound?
A: limits

Q: And the “thickening of the interventricular septum (IVSTh) triggered by TAC” value [3]?
A: limits
